The values below come from ChEMBL document CHEMBL1135229, “Novel potent antagonists of human neuropeptide Y Y5 receptors. Part 3: 7-methoxy-1-hydroxy-1-substituted tetraline derivatives” (Bioorg Med Chem Lett, 2002).

One assay deals with T1, Neuropeptide Y receptor type 5 (Homo sapiens, UniProt Q15761).
T1 sequence (Q15761 whole entry): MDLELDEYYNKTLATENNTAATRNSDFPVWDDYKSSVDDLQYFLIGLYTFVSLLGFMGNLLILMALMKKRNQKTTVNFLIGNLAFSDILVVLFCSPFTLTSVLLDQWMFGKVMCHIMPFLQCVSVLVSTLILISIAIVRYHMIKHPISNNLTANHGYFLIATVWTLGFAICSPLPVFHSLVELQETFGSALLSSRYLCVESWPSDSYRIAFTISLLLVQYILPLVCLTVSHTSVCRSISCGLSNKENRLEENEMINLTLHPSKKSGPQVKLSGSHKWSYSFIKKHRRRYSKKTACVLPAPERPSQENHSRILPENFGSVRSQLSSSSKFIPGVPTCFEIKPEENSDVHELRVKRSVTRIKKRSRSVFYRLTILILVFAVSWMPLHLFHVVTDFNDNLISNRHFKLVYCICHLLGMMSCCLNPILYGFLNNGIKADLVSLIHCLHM
As to the kind of experiment: Inhibition of 125 I-PYY binding to human Neuropeptide Y receptor type 5.
As for `COc1ccc2c(c1)CC(NCC1CCN(C(=O)CNS(=O)(=O)c3cccc4ccccc34)CC1)CCC2` (stereo not drawn), the IC50 was 3.7 nM.
The same measure, in the same setting: under `COc1ccc2c(c1)C(O)(CNCCC1CCN(CCNS(=O)(=O)c3cccc4ccccc34)CC1)CCC2` (stereo not drawn) stands 24 nM; under `COc1ccc2c(c1)CC(NCC1CCN(C(=O)Cn3c(=O)sc4ccc(Cl)cc43)CC1)CCC2` (stereo not drawn), 0.7 nM.
For the molecule `COc1ccc2c(c1)C(O)(CNCC1CCN(CCNS(=O)(=O)c3cccc(Cl)c3C)CC1)CCC2` (stereo not drawn), the IC50 was 11 nM.
`COc1ccc2c(c1)CC(O)(CNCC1CCN(CCNS(=O)(=O)c3cccc4ccccc34)CC1)CCC2` (stereo not drawn) showed an IC50 of 56 nM.
The same measure, in the same setting: under `COc1ccc2c(c1)CC(CNC(=O)C1CCN(C(=O)Cn3c(=O)sc4ccc(Cl)cc43)CC1)CCC2` (stereo not drawn) stands 1.2 nM; under `COc1ccc2c(c1)C(O)(CNCC1CCN(CCNS(=O)(=O)c3cccc(C)c3)CC1)CCC2` (stereo not drawn), 13 nM.
The molecule `COc1ccc2c(c1)C(O)(CNCC1CCN(CCNS(=O)(=O)c3cccc4ccccc34)CC1)CCC2` (stereo not drawn) had an IC50 of 0.54 nM.
On the same count and under the same terms, under `COc1ccc2c(c1)C(O)(CNC(=O)C1CCN(C(=O)Cn3c(=O)sc4ccc(Cl)cc43)CC1)CCC2` (stereo not drawn) stands 1 nM; under `COc1ccc2c(c1)C(O)(CNCC1CCN(CCNS(=O)(=O)c3cccc4ccccc34)CC1)CC2` (stereo not drawn), 66 nM; under `COc1ccc2c(c1)C(O)(CNCC1CCN(C(=O)Cn3c(=O)sc4ccc(Cl)cc43)CC1)CCC2` (stereo not drawn), 28 nM.
Still for that read-out and setting: under `O=C(Nc1nccs1)C1CCN(C(=O)Cn2c(=O)sc3ccc(Cl)cc32)CC1` [FR-73966] stands 53 nM.

For a further assay, the target named is T2, Neuropeptide Y receptor type 1 (Homo sapiens, UniProt P25929).
T2 sequence (P25929 whole entry): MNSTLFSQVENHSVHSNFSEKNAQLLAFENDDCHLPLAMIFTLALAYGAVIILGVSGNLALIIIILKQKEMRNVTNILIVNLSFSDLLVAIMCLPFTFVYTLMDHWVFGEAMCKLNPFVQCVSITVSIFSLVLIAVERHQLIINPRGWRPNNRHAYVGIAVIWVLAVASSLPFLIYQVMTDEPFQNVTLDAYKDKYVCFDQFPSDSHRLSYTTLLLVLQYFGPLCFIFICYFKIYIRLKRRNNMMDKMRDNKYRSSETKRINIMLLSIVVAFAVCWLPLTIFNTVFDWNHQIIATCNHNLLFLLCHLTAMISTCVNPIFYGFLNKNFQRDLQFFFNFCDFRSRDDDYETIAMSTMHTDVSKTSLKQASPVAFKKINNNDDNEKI
As to the kind of experiment: Compound was evaluated for the inhibitory activity against human Neuropeptide Y receptor type 1.
Regarding `COc1ccc2c(c1)CC(NCC1CCN(C(=O)Cn3c(=O)sc4ccc(Cl)cc43)CC1)CCC2` (stereo not drawn), the IC50 was 12000 nM.

The term IC50 denotes the concentration that inhibits the measured activity by half. Higher therefore signals lower potency.
